The results in this text go back to patent US8101647B2, “Spiro-oxindole compounds and their use as therapeutic agents” (Xenon Pharmaceuticals Inc., priority 2008, dated 2012).

Where only a bound is given, the exact number is not on record here.

Data set [1] concerns inactivated state of the channel of interest (sodium channel). Description: Electrophysiological assay (whole cell voltage clamp). The following applies: affinity for the inactivated state of the channel. It counts as cell-based. As to the method:
Cells expressing the channel of interest are cultured in DMEM growth media (Gibco) with 0.5 mg/mL G418, +/−1% PSG, and 10% heat-inactivated fetal bovine serum at 37° C. and 5% CO2. For electrophysiological recordings, cells are plated on 10 mm dishes.
Whole cell recordings are examined by established methods of whole cell voltage clamp (Bean et al., op. cit.) using an Axopatch 200B amplifier and Clampex software (Axon Instruments, Union City, Calif.). All experiments are performed at ambient temperature. Electrodes are fire-polished to resistances of 2-4 Mohms Voltage errors and capacitance artifacts are minimized by series resistance compensation and capacitance compensation, respectively. Data are acquired at 40 kHz and filtered at 5 kHz. The external (bath) solution consists of: NaCl (140 mM), KCl (5 mM), CaCl2 (2 mM), MgCl2 (1 mM), HEPES (10 mM) at pH 7.4. The internal (pipette) solution consists of (in mM): NaCl (5), CaCl2 (0.1), MgCl2 (2), CsCl (10), CsF (120), HEPES (10), EGTA (10), at pH 7.2.
To estimate the steady-state affinity of compounds for the resting and inactivated state of the channel (Kr and Ki, respectively), 12.5 ms test pulses to depolarizing voltages from −60 to +90 m V from a holding potential of −120 m V is used to construct current-voltage relationships (I-V curves). A voltage near the peak of the IV-curve (−30 to 0 m V) is used as the test pulse throughout the remainder of the experiment. Steady-state inactivation (availability) curves are then constructed by measuring the current activated during a 8.75 ms test pulse following 1 second conditioning pulses to potentials ranging from −120 to −10 mV.
The steady-state voltage-dependence of binding of a compound to a sodium channel is determined by measuring the blockage of the ionic current at two holding potentials. Binding to rested-state channels is determined by using a holding potential of −120 mV, so that maximal availability is achieved. Binding to inactivated-state channels is evaluated at a holding potential such that only 10% of the channels are available to open. The membrane potential is held at this voltage for at least 10 seconds so that drug binding can equilibrate.
The apparent dissociation constant at each voltage is calculated with the equation:
[formula] where Kd is the dissociation constant (either Kr or Ki), and [Drug] is the concentration of the test compound.
The Example numbers provided in Table 3 correspond to the Examples herein: […]

Data set [2] deals with T1, CYP3A4 (Homo sapiens, UniProt P08684).
T1 construct: purchased Invitrogen Corporation (Vivid CYP450 Screening Kit)
The data set can be described thus: Cytochrome P450 (CYP450) inhibition assay, fluorescence-based. It counts as in vitro ADME. The note with it: recombinant CYP3A4 (P450 Baculosomes), probe Vivid substrate (fluorogenic).

The subject of data set [3] is sodium channel. The data set can be described thus: Guanidine influx assay. The format is cell-based, human or rat. The following applies: known cell line that expresses a sodium channel; read-out: IC50 Activity Level. The text has this: This example describes an in vitro assay for testing and profiling test agents against human or rat sodium channels stably expressed in cells of either an endogenous or recombinant origin. The assay is also useful for determining the IC50 of a sodium channel blocking compound. The assay is based on the guanidine flux assay described by Reddy, N. L., et al., J. Med. Chem. (1998), 41(17):3298-302.
The guanidine influx assay is a radiotracer flux assay used to determine ion flux activity of sodium channels in a high-throughput microplate-based format. The assay uses ^14C-guanidine hydrochloride in combination with various known sodium channel modulators, to assay the potency of test agents. Potency is determined by an IC50 calculation. Selectivity is determined by comparing potency of the compound for the channel of interest to its potency against other sodium channels (also called ‘selectivity profiling’).
Each of the test agents is assayed against cells that express the channels of interest. Voltage gated sodium channels are either TTX sensitive or insensitive. This property is useful when evaluating the activities of a channel of interest when it resides in a mixed population with other sodium channels. The following Table 1 summarizes cell lines useful in screening for a certain channel activity in the presence or absence of TTX.
It is also possible to employ recombinant cells expressing these sodium channels. Cloning and propagation of recombinant cells are known to those skilled in the art (see, for example, Klugbauer, N, et al., EMBO J. (1995), 14(6):1084-90; and Lossin, C., et al., Neuron (2002), 34, pp. 877-884).
Cells expressing the channel of interest are grown according to the supplier or in the case of a recombinant cell in the presence of selective growth media such as G418 (Gibco/Invitrogen). The cells are disassociated from the culture dishes with an enzymatic solution (1×) Trypsin/EDTA (Gibco/Invitrogen) and analyzed for density and viability using haemocytometer (Neubauer). Disassociated cells are washed and resuspended in their culture media then plated into Scintiplates (Beckman Coulter Inc.) (approximately 100,000 cells/well) and incubated at 37° C./5% CO2. for 20-24 hours. After an extensive wash with Low sodium HEPES-buffered saline solution (LNHBSS) (150 mM Choline Chloride, […] (Sigma), 1 mM Calcium Chloride, 5 mM Potassium Chloride, 1 mM Magnesium Chloride, 10 mM Glucose) agents diluted with LNHBSS are added to each well. (Varying concentrations of test agent may be used). The activation/radiolabel mixture contains aconitine (Sigma) to increase the percentage of time that the sodium channels are open, and ^14C-guanidine hydrochloride (ARC) to measure flux through the voltage-gated sodium channels.
After loading the cells with test agent and activation/radiolabel mixture, the Scintiplates are incubated at ambient temperature. Following the incubation, the Scintplates are extensively washed with LNHBSS supplemented with guanidine (Sigma). The Scintiplates are dried and then counted using a Wallac MicroBeta TriLux (Perkin-Elmer Life Sciences). The ability of the test agent to block sodium channel activity is determined by comparing the amount of ^14C-guanidine present inside the cells expressing the different sodium channels.
The IC50 value of a test agent for a specific sodium channel may be determined using the above general method. […] Typically the mid-point concentration of test agent is set at 1 μM, and sequential concentrations of half dilutions greater or smaller are applied (e.g. 0.5 μM; 5 μM and 0.25 μM; 10 μM and 0.125 μM; 20 μM etc.). The IC50 curve is calculated using the 4 Parameter Logistic Model or Sigmoidal Dose-Response Model formula (fit=(A+((B−A)/(1+((C/x)^D)))).
The fold selectivity, factor of selectivity or multiple of selectivity, is calculated by dividing the IC50 value of the test sodium channel by the reference sodium channel, for example, NaV1.5. […]

Data set [4] concerns the target CYP2C19 (Homo sapiens, UniProt P33261).
Data set [5] has as its target CYP2C9 (Homo sapiens, UniProt P11712).
Data set [6] relates to SH-SY5Y (Nav1.9 and Nav1.7). It counts as cell-based, Human.
The test system of data set [7] is L6 (Nav1.4 and 1.5). It counts as cell-based, rat.
The target of data set [8] is SK-N-BE2C (Nav1.8) (Homo sapiens, UniProt Q9Y5Y9). The format is cell-based.
The target in data set [9] is CHO-K1 (Nav1.4) (Cricetulus griseus, UniProt A0A9J7H6F9). The format is cell-based, Chinese Hamster.
Data set [10] deals with PC12 (Nav1.2) (Rattus norvegicus, UniProt P04775).
PC12 (Nav1.2), sequence (P04775 whole entry, looked up): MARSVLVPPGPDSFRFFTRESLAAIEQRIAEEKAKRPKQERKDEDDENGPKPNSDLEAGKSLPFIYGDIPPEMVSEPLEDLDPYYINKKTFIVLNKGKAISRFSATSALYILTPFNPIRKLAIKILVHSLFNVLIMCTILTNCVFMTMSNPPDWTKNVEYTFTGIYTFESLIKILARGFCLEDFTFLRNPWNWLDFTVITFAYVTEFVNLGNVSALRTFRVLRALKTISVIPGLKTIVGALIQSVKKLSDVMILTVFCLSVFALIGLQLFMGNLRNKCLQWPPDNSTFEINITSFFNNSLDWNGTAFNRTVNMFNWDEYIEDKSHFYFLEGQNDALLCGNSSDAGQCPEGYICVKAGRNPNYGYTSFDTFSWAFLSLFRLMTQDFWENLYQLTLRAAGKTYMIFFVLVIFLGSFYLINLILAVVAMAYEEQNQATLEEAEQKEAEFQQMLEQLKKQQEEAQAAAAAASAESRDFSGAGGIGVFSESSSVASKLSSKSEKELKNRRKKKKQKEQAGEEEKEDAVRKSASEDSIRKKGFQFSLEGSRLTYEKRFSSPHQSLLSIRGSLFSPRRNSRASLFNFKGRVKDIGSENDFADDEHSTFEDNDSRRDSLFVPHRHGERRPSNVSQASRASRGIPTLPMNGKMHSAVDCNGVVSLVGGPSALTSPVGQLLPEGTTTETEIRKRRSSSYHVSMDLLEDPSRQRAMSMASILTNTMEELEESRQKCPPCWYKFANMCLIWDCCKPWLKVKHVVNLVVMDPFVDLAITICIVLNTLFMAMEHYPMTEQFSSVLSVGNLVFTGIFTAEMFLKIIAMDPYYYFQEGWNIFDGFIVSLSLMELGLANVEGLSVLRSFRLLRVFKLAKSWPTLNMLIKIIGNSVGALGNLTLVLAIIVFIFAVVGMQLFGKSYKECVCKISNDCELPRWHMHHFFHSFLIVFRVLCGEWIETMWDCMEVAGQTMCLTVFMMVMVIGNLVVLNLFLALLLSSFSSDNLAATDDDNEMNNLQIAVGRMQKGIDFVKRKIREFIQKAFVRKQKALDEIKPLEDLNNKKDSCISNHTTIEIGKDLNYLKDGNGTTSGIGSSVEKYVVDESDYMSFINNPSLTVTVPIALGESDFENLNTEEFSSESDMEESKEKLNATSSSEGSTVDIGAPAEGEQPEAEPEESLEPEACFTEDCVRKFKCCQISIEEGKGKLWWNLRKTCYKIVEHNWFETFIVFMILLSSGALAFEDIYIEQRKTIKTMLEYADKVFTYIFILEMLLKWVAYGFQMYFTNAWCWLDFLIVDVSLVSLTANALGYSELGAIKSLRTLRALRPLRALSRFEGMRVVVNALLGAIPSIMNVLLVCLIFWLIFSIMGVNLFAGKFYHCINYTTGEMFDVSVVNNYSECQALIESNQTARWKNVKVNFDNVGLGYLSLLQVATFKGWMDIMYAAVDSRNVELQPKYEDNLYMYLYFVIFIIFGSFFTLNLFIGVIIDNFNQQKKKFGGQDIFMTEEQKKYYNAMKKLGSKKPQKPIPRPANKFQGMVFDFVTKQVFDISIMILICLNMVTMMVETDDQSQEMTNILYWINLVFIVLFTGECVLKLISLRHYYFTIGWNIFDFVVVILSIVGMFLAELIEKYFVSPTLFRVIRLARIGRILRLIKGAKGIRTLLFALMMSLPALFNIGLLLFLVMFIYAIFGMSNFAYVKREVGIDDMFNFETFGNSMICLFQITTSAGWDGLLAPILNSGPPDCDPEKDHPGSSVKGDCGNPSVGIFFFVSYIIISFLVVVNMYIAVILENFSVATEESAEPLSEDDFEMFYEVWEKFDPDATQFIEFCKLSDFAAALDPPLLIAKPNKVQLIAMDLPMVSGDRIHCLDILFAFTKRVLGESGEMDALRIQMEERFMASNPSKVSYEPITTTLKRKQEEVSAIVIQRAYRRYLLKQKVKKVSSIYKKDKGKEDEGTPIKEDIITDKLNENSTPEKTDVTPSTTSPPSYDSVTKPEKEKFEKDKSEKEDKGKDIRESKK

T1 sequence (P08684 whole entry): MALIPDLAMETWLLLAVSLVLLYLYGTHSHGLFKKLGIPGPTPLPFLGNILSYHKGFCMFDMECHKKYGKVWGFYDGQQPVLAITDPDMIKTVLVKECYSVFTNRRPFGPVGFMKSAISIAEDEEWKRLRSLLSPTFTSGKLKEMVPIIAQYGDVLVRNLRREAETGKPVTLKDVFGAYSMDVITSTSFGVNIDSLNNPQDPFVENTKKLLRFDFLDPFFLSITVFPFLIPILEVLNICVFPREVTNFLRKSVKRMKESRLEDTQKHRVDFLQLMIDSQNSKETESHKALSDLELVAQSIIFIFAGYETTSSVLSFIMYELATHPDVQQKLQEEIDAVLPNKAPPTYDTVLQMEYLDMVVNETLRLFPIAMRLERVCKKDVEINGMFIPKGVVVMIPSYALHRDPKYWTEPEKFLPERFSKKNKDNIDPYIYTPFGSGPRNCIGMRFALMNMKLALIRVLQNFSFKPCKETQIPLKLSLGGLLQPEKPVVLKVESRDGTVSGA
CYP2C9, sequence (P11712 whole entry): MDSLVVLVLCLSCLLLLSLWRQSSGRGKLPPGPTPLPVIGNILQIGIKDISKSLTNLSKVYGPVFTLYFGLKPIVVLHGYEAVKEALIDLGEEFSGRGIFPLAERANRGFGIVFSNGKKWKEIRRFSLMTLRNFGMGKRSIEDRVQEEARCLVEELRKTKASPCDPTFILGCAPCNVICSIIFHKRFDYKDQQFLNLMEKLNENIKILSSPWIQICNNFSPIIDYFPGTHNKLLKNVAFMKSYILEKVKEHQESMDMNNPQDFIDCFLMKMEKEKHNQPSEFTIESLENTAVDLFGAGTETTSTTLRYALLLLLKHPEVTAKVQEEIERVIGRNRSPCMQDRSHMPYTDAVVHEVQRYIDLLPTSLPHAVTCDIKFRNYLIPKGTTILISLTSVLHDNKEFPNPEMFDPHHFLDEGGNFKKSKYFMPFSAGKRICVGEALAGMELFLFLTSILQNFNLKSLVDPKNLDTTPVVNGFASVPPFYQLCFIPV
CHO-K1 (Nav1.4), sequence (A0A9J7H6F9 1-1930): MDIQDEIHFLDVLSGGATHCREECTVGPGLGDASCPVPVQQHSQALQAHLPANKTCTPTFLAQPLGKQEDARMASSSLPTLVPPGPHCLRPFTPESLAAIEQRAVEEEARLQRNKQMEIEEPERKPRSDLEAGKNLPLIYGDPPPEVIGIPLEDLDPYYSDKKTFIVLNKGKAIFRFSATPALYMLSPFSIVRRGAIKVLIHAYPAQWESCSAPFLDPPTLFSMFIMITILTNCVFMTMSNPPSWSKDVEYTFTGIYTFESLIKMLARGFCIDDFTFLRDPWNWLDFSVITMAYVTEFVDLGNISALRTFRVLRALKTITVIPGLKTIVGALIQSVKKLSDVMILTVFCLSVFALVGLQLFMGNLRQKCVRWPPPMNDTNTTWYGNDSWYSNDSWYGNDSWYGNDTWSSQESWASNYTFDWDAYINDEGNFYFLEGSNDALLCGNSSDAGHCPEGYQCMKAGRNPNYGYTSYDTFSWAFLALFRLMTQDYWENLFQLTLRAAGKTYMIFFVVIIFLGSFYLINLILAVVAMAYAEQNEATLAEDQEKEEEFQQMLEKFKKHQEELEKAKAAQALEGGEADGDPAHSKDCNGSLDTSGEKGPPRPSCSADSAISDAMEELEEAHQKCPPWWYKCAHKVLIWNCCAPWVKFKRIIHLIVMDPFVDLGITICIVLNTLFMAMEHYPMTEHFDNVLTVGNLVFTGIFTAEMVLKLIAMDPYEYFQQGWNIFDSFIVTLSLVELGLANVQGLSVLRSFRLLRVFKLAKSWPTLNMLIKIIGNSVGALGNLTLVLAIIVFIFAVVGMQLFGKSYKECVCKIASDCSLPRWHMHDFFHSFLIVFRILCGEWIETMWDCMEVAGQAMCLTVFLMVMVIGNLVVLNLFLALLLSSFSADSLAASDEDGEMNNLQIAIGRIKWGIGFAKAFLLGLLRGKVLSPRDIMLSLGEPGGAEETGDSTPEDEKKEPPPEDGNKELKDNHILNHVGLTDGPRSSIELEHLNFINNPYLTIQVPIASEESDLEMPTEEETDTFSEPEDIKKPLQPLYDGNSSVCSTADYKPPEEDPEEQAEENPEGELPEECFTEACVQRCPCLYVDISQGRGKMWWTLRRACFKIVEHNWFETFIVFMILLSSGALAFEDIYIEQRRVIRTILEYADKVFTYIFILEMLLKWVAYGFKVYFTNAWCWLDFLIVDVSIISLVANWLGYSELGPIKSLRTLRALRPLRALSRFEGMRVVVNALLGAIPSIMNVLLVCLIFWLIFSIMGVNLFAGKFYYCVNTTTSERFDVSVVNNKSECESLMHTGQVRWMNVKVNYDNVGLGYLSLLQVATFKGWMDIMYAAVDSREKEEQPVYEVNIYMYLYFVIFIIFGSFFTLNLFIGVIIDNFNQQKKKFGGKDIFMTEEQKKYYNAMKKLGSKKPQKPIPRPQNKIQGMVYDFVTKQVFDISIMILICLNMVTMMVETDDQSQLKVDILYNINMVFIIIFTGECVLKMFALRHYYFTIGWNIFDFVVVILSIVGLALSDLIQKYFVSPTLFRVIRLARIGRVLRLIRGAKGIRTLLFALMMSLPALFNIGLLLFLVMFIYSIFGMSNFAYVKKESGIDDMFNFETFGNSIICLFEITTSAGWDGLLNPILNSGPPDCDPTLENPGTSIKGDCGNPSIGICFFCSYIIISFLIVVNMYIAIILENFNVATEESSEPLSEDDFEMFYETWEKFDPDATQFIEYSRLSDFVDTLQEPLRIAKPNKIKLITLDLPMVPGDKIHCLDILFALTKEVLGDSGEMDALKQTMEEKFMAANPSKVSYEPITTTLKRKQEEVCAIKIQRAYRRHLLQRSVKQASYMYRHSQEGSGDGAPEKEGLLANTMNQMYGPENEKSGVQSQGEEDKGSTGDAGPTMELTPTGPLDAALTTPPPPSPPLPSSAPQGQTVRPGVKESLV

One may read the melting point as the temperature, or range, at which the solid turns liquid. As usually defined, the inhibition is the share of the control response that was lost under treatment. What is called IC50 is the concentration that gives 50% inhibition. Take `NC(=O)COc1ccc(CN2C(=O)C3(COc4cc5c(cc43)OCCO5)c3ccccc32)cc1` (stereo not shown) [Example 13.2, 2-{4-[(2′-oxo-2,3-dihydrospiro[furo[2,3-g][1,4]benzodioxine-8,3′-indol]-1′(2′H)-yl)methyl]phenoxy}acetamide]: the melting point was 225 to 227 °C. Besides, the Ki in [1] is above 300 nM. Besides, the inhibition at 10 µM in data set [2] was above 50%. In data set [3], the IC50 fell in the range of 1 to 100 nM.

Consider `CN(C)CCOc1ccc(CN2C(=O)C3(COc4cc5c(cc43)OCCO5)c3ccccc32)cc1` (stereo not shown) [Example 13.4, 1′-{4-[2-(dimethylamino)ethoxy]benzyl}-2,3-dihydrospiro[furo[2,3-g][1,4]benzodioxine-8,3′-indol]-2′(1′H)-one], for which the melting point was in the range of 77 to 79 °C. In data set [1], this compound yielded a Ki below 300 nM. Also, the inhibition at 10 µM in data set [2] was above 50%. Besides, in data set [3], the IC50 lay in the range of 100 to 1000 nM.

`CCOC(=O)COc1cccc(CN2C(=O)C3(COc4cc5c(cc43)CCO5)c3ccccc32)c1` (stereo not shown) [Example 14, ethyl {3-[(2′-oxo-5,6-dihydrospiro[benzo[1,2-b:5,4-b′]difuran-3,3′-indol]-1′(2′H)-yl)methyl]phenoxy}acetate] yielded a melting point of 45 to 46 °C. The same compound displayed a Ki in [1] above 300 nM. Further, the inhibition at 10 µM in [2] is above 50%. Also, the IC50 in data set [3] was 100 to 1000 nM.

`O=C1N(Cc2ccc(OCCO)cc2)c2ccccc2C12COc1cc3c(cc12)OCCO3` (stereo not shown) [Example 15.3, 1′-[4-(2-hydroxyethoxy)benzyl]-2,3-dihydrospiro[furo[2,3-g][1,4]benzodioxine-8,3′-indol]-2′(1′H)-one] had a melting point of 196 to 197 °C. In data set [1], this compound yielded a Ki above 300 nM. In data set [2], the inhibition at 10 µM was below 50%.

Take `O=C1N(C[C@H]2CCCO2)c2ccccc2C12COc1cc3c(cc12)C(=NO)CO3` (stereo partly drawn) [Example 24, 1′-[(2R)-tetrahydrofuran-2-ylmethyl]spiro[benzo[1,2-b:5,4-b′]difuran-3,3′-indole]-2′,5(1′H,6H)-dione 5-oxime]: the melting point was in the range of 82 to 100 °C. The inhibition at 10 µM in data set [2] was above 50%. In addition, the IC50 in data set [3] lay within 1000 to 10000 nM.

The compound `N/C(CN1C(=O)C2(COc3cc4c(cc32)OCO4)c2ccccc21)=N\O` (stereo not shown) [Example 25, (1Z)-N′-hydroxy-2-(2′-oxospiro[furo[2,3-f][1,3]benzodioxole-7,3′-indol]-1′(2′H)-yl)ethanimidamide] returned a melting point of 235 to 238 °C. Moreover, in data set [2], the inhibition at 10 µM was above 50%. For the same compound, the IC50 in data set [3] was in the range of 100 to 1000 nM.

As for `CC(=O)N1CCN(c2ccc(OCC3COC(Cn4ccnc4)(c4ccc(Cl)cc4Cl)O3)cc2)CC1` (stereo not shown) [Ketoconazole], the “% Inhibition in 10 μM assay” value in data set [4] is given as 65 +/− 10%.

As for `Nc1ccc(S(=O)(=O)Nc2ccnn2-c2ccccc2)cc1` [Sulfaphenazole], the “% Inhibition in 10 μM assay” value in data set [5] is 50 +/− 15%.

In the case of `NC1=N[C@H](O)[C@H]2[C@H]3O[C@]4(O)O[C@@H]([C@@H](O)[C@@]2(N1)[C@@H]4O)[C@]3(O)CO` [TTX, tetrodotoxin], the “block of increase in [14C] guanidine influx” value in data set [6] is given as “background was partially blocked”; in data set [7] it was “partially blocked by TTX at 100 nM”; in [8] it was “TTX partially blocked influx”; in data set [9], “completely blocked using TTX”; in data set [10], “guanidine influx was completely”.
